The source of these data is patent US4366149A, “Antitumor anthracycline glycosides, their preparation, intermediates therefor, and compositions and use thereof” (priority 1980, dated 1982).

In brackets after ≈: the same amount, converted by molar mass. Read-outs that look alike come from different tables or passages of the source.

One series has as its system HeLa cells. Description: HeLa cells cloning efficiency in vitro. It is filed as cell-based. To be noted: for IC50: read-out: ID50 (HeLa cells cloning efficiency); for cytotoxicity on HeLa cells cloning efficiency, in words: in vitro, compared with daunorubicin. The protocol: Activity on HeLa cells cloning efficiency in vitro. Treatment for 24 hours
The subject of a further series is P388 ascitic leukemia. Briefly: Activity against P388 ascitic leukemia in mice. The class given is in vivo. To be noted: for activity against P388 leukemia, in words: preliminary test in mice. An excerpt: Activity against P388 ascitic leukemia. Treatment i.p. on day one after tumour inoculation.
The mark [1] stands for this setting: 2.9 mg/kg i.p. on day one after tumour inoculation.
The mark [2] stands for this setting: 4.4 mg/kg i.p. on day one after tumour inoculation.
Where [3] appears, read: 6.6 mg/kg i.p. on day one after tumour inoculation.
Where [4] appears, read: Homo sapiens, HeLa, 24 h, read-out: % of controls (HeLa cells cloning efficiency).
Setting [5] is: 6 mg/kg i.p. on day one after tumour inoculation.
Setting [6] is: 9 mg/kg i.p. on day one after tumour inoculation.
[7] abbreviates: 13.5 mg/kg i.p. on day one after tumour inoculation.
Setting [8] is: 10 mg/kg i.p. on day one after tumour inoculation.
Where [9] appears, read: 20 mg/kg i.p. on day one after tumour inoculation.
The mark [10] stands for this setting: 40 mg/kg i.p. on day one after tumour inoculation.

Take `COc1cccc2c1C(=O)c1c(O)c3c(c(O)c1C2=O)C[C@@](O)(C(C)=O)C[C@@H]3O[C@H]1C[C@H](N)[C@H](O)[C@H](C)O1` [Daunorubicin, daunorubicin, reference compound]: the activity at 0.0031 µg/mL with HeLa cells (Homo sapiens, HeLa, dose 3.1 ng/ml, treatment for 24 hours, data of 2 experiments, read-out: % of controls (HeLa cells cloning efficiency)) lay within 88 to 98%. The activity at 0.0062 µg/mL in the series on HeLa cells (Homo sapiens, HeLa, dose 6.2 ng/ml, treatment for 24 hours (daunorubicin: data of 2 experiments), read-out: % of controls (HeLa cells cloning efficiency)) is 73 to 87%. In the series with HeLa cells (Homo sapiens, HeLa, treatment for 24 hours (daunorubicin: data of 2 experiments)), the IC50 worked out at 0.012 µg/mL (≈ 0.0227 µM). For the same molecule, the T/C % is given as 181% in the series on P388 ascitic leukemia (setting [1]), 140% in the series on P388 ascitic leukemia (setting [2]) and 118% in the series with P388 ascitic leukemia (setting [3]). Also, the “Toxicity Deaths” value in the series with P388 ascitic leukemia (setting [1]) was 0/10; with P388 ascitic leukemia (setting [2]), 9/10; in the series on P388 ascitic leukemia (setting [3]), 10/10.
`COc1cccc2c1C(=O)c1c(O)c3c(c(O)c1C2=O)C[C@@](O)(C(C)=O)C[C@@H]3O[C@H]1C[C@H](N)[C@H](N)[C@H](C)O1` [XOO-O132 (I-A), 4'-amino-4'-deoxy-daunorubicin]: in the series on HeLa cells (setting [4]), the activity at 0.0062 µg/mL stood at 98%, the activity at 0.025 µg/mL was 70% and the activity at 0.1 µg/mL was found to be 0%. The IC50 with HeLa cells (Homo sapiens, HeLa, 24 h) stood at 0.035 µg/mL (≈ 0.0665 µM). For the same molecule, in the series on HeLa cells, the “cytotoxicity on HeLa cells cloning efficiency, in words” value is “less cytotxic than daunorubicin”. Moreover, in the series with P388 ascitic leukemia (setting [5]), the T/C % came to 181% and the “Toxicity Deaths” value is recorded as 0/10. In the series with P388 ascitic leukemia (setting [6]), the T/C % is listed as 190% and the “Toxicity Deaths” value is 0/10. Also, in the series with P388 ascitic leukemia (setting [7]), the T/C % is given as 222% and the “Toxicity Deaths” value is 0/10. Further, in the series on P388 ascitic leukemia (P388 leukemia in mice, 13.5 mg/kg), the “activity at the maximal dose tested, in words” value is given as “highly active”. Also, the “toxicity, in words” value with P388 ascitic leukemia (P388 leukemia in mice, compared with daunorubicin) is “less toxic than daunorubicin”. The “activity against P388 leukemia, in words” value with P388 ascitic leukemia (compared with daunorubicin) is given as “much more active daunorubicin”.
Regarding `COc1cccc2c1C(=O)c1c(O)c3c(c(O)c1C2=O)C[C@@](O)(C(C)=O)C[C@@H]3O[C@H]1C[C@H](N)[C@@H](NC(=O)C(F)(F)F)[C@H](C)O1` [XOO-O136 (I-B), 4'-deoxy-4'-epi-trifluoroacetamido-daunorubicin], in the series with HeLa cells (setting [4]), the activity at 0.1 µg/mL amounted to 211%, the activity at 0.4 µg/mL was found to be 21% and the activity at 1.6 µg/mL stood at 0%. The IC50 in the series on HeLa cells (Homo sapiens, HeLa, 24 h) was determined as 0.18 µg/mL (≈ 0.289 µM). In the series on HeLa cells, the “cytotoxicity on HeLa cells cloning efficiency, in words” value is on record as “less cytotxic than daunorubicin”. Further, in the series with P388 ascitic leukemia (setting [8]), the T/C % was determined as 145% and the “Toxicity Deaths” value was 0/10. Also, in the series on P388 ascitic leukemia (setting [9]), the T/C % is 154% and the “Toxicity Deaths” value is given as 0/10. In the series on P388 ascitic leukemia (setting [10]), the T/C % amounted to 163% and the “Toxicity Deaths” value was 2/10. For the same molecule, the “activity against P388 leukemia, in words” value in the series on P388 ascitic leukemia (compared with daunorubicin) is given as “much more active daunorubicin”.
